We go through 23 compounds from patent publication US9868746B2, “Substituted 5-aminothieno[2,3-C]pyridazine-6-carboxamide analogs as positive allosteric modulators of the muscarinic acetylcholine receptor M4” (Vanderbilt University, priority 2012, dated 2018).

The target of the assay is T1, mAChR M4 (Homo sapiens, UniProt P08173).
T1 construct: expressed in transfected cells; host or cells: CHO-K1 cells stably transfected with M4 cDNA and chimeric G-protein Gqi5
T1 sequence (P08173 1-479): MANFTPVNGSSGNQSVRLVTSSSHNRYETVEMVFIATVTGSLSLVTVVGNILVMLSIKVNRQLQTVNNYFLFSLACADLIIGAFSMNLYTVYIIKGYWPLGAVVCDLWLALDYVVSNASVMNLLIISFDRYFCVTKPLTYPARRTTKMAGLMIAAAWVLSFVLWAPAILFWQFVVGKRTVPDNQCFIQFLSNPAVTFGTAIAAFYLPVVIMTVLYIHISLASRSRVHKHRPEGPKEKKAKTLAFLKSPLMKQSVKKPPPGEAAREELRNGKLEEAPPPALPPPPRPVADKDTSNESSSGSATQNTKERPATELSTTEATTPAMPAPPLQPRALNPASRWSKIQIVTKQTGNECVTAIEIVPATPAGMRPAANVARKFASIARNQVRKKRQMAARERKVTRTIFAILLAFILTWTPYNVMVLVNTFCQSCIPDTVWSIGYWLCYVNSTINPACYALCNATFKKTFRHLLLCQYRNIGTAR
The experiment in a line: mAChR M4 cell-based functional assay (calcium mobilization, potentiation of EC20 acetylcholine response). The following applies: for EC50: mAChR M4 cell-based functional assay, >10,000 estimated for low potency compounds without plateau, read-out: EC50.

What is called Emax is the size of the effect at its maximum, as opposed to the concentration needed. Usually EC50 stands for the concentration at which the effect is half-maximal.

On to `COc1ccc(NC(=O)N2CC(NC(=O)c3sc4nnc(C)c(C)c4c3N)C2)cc1` [Example B371], for which the EC50 was 48 nM. For the same compound, where the note is “% ACh maximum at 30 μM”, the Emax at 30 µM came out at 61%.
Taken in the same sequence, the figures for `COc1ccc(C#CCNC(=O)c2sc3nnc(C)c(C)c3c2N)cc1` [Example B373] were 170 nM and 66%.
Consider `Cc1nnc2sc(C(=O)NCCNC(=O)Oc3ccccc3)c(N)c2c1C` [Example B374], for which the concentration giving a half-maximal response (EC50) is greater than 10000 nM. Besides, the “Emax (%)*” value (% ACh maximum at 30 μM) is reported as 33%.
With `Cc1nnc2sc(C(=O)NCCN(C)S(=O)(=O)c3ccccc3)c(N)c2c1C` [Example B375], the 50% effective concentration (EC50) was 4000 nM. The maximal effect (Emax) at 30 µM (% ACh maximum at 30 μM) was determined as 51%.
As to `COc1ccccc1OC(=O)N1CC(NC(=O)c2sc3nnc(C)c(C)c3c2N)C1` [Example B376], the concentration giving a half-maximal response (EC50) is 17 nM. For the same compound, the maximal response (Emax) at 30 µM (% ACh maximum at 30 μM) came out at 59%.
Regarding `Cc1nnc2sc(C(=O)N3CC(F)(c4ccc(S(=O)(=O)C(F)F)cc4)C3)c(N)c2c1C` [Example B377], the EC50 was 72 nM. Further, the maximal response (Emax) at 30 µM (% ACh maximum at 30 μM) was determined as 50%.
`Cc1nnc2sc(C(=O)N3CC(F)(c4ccc(S(=O)(=O)C(F)(F)F)cc4)C3)c(N)c2c1C` [Example B378]: the half-maximal effective concentration (EC50) was 4200 nM. For the same compound, the Emax at 30 µM (% ACh maximum at 30 μM) was 46%.
`Cc1nnc2sc(C(=O)N3CCC(C4CCCCC4)C3)c(N)c2c1C` (stereo not shown) [Example B379]: the EC50 was 3900 nM. The Emax at 30 µM (% ACh maximum at 30 μM) is 45%.
In the case of `Cc1nnc2sc(C(=O)N3CCc4nn(C)cc4C3)c(N)c2c1C` [Example B380], the EC50 is greater than 10000 nM. The maximal response (Emax) at 30 µM (% ACh maximum at 30 μM) was 34%.
As to `Cc1nnc2sc(C(=O)N3CCC4(CCCC4)C3)c(N)c2c1C` [Example B381], the half-maximal effective concentration (EC50) is 710 nM. For the same compound, the Emax at 30 µM (% ACh maximum at 30 μM) was 63%.
Take `Cc1nnc2sc(C(=O)N3CCC[C@H]3C)c(N)c2c1C` [Example B382]: the 50% effective concentration (EC50) was greater than 10000 nM. Besides, the Emax at 30 µM (% ACh maximum at 30 μM) was 45%.
Regarding `Cc1nnc2sc(C(=O)N3CC(F)(c4ccc(S(C)(=O)=O)cc4)C3)c(N)c2c1C` [Example B383], the EC50 was 510 nM. Further, the Emax at 30 µM (% ACh maximum at 30 μM) came out at 51%.
As to `Cc1nnc2sc(C(=O)N3CC(F)(c4ccc([S+](C)[O-])cc4)C3)c(N)c2c1C` (stereo not shown) [Example B384], the concentration giving a half-maximal response (EC50) was 1100 nM. For the same compound, the maximal response (Emax) at 30 µM (% ACh maximum at 30 μM) amounted to 71%.
For the compound `Cc1nnc2sc(C(=O)N3CC4CN(C(=O)C5CCC5)CC4C3)c(N)c2c1C` (stereo not shown) [Example B385], the EC50 is 2600 nM. Further, the maximal response (Emax) at 30 µM (% ACh maximum at 30 μM) was 55%.
Regarding `Cc1nnc2sc(C(=O)N3CC4CN(C(=O)CC5CCCCC5)CC4C3)c(N)c2c1C` (stereo not shown) [Example B386], the concentration for a half-maximal effect (EC50) was 820 nM. Moreover, the Emax at 30 µM (% ACh maximum at 30 μM) was 44%.
Taken in the same sequence, the figures for `Cc1nnc2sc(C(=O)NCc3ccc(S(=O)(=O)CCO)cc3)c(N)c2c1C` [Example B387] were 68 nM and 77%.
Regarding `Cc1nnc2sc(C(=O)N3CC4CN(C(=O)C(C)C)CC4C3)c(N)c2c1C` (stereo not shown) [Example B388], the concentration for a half-maximal effect (EC50) was greater than 10000 nM. Besides, under “% ACh maximum at 30 μM”, the maximum response (Emax) at 30 µM is 55%.
For `CCCCC(=O)N1CC2CN(C(=O)c3sc4nnc(C)c(C)c4c3N)CC2C1` (stereo not shown) [Example B389], the EC50 is 1300 nM. Further, the maximal effect (Emax) at 30 µM (% ACh maximum at 30 μM) came to 47%.
As for `Cc1nnc2sc(C(=O)NC3(c4ccc(F)cc4)CC3)c(N)c2c1C` [Example B390], the EC50 is greater than 10000 nM. The Emax at 30 µM (% ACh maximum at 30 μM) was 46%.
The corresponding values for `Cc1nnc2sc(C(=O)NC3CN(C(=O)c4ccc(F)cc4F)C3)c(N)c2c1C` [Example B391] are 300 nM and 88%.
Regarding `Cc1nnc2sc(C(=O)NC3CN(C(=O)c4cccc(Cl)c4)C3)c(N)c2c1C` [Example B392], the EC50 was 74 nM. The maximal response (Emax) at 30 µM (% ACh maximum at 30 μM) stood at 60%.
Taken in the same sequence, the figures for `Cc1nnc2sc(C(=O)N3CC(F)(c4ccc(S(=O)(=O)CF)cc4)C3)c(N)c2c1C` [Example B393] were 400 nM and 44%.
On to `Cc1nnc2sc(C(=O)N3CC4(C3)CN(S(=O)(=O)c3ccccc3)C4)c(N)c2c1C` [Example B394], for which the concentration giving a half-maximal response (EC50) was 1100 nM. Under “% ACh maximum at 30 μM”, the Emax at 30 µM was 47%.
